We go through eleven compounds from patent US20230150974A1 (Foghorn Therapeutics Inc., priority 2020, published 2023).

Structures can show the parent of a compound that is named as a salt.

Experiment [1] addresses T1, HiBiT-BRM (Homo sapiens, UniProt P51531).
T1 construct: expressed in transfected cells
Put plainly: HiBiT-BRM cell-based degradation assay (Nano-Glo HiBiT Lytic Detection). The note with it: HeLa cells expressing HiBiT-BRM, 24 h; for DC50: read-out: BRM HiBit Degradation IC50. The method in brief:
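HeLa cells stably expressing HiBiT-tagged BRM were treated for 24 h, then lysed with LgBiT-containing Nano-Glo reagent and luminescence read. % degradation scaled between DMSO (high control) and 2 μM reference BRM/BRG1 degrader (low control).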
For orientation: The HiBiT peptide binds its large partner to form an active luciferase.

The target of experiment [2] is T2, HiBit-BRG1 (Homo sapiens, UniProt P51532).
T2 construct: expressed in transfected cells
T2 sequence (P51532 whole entry): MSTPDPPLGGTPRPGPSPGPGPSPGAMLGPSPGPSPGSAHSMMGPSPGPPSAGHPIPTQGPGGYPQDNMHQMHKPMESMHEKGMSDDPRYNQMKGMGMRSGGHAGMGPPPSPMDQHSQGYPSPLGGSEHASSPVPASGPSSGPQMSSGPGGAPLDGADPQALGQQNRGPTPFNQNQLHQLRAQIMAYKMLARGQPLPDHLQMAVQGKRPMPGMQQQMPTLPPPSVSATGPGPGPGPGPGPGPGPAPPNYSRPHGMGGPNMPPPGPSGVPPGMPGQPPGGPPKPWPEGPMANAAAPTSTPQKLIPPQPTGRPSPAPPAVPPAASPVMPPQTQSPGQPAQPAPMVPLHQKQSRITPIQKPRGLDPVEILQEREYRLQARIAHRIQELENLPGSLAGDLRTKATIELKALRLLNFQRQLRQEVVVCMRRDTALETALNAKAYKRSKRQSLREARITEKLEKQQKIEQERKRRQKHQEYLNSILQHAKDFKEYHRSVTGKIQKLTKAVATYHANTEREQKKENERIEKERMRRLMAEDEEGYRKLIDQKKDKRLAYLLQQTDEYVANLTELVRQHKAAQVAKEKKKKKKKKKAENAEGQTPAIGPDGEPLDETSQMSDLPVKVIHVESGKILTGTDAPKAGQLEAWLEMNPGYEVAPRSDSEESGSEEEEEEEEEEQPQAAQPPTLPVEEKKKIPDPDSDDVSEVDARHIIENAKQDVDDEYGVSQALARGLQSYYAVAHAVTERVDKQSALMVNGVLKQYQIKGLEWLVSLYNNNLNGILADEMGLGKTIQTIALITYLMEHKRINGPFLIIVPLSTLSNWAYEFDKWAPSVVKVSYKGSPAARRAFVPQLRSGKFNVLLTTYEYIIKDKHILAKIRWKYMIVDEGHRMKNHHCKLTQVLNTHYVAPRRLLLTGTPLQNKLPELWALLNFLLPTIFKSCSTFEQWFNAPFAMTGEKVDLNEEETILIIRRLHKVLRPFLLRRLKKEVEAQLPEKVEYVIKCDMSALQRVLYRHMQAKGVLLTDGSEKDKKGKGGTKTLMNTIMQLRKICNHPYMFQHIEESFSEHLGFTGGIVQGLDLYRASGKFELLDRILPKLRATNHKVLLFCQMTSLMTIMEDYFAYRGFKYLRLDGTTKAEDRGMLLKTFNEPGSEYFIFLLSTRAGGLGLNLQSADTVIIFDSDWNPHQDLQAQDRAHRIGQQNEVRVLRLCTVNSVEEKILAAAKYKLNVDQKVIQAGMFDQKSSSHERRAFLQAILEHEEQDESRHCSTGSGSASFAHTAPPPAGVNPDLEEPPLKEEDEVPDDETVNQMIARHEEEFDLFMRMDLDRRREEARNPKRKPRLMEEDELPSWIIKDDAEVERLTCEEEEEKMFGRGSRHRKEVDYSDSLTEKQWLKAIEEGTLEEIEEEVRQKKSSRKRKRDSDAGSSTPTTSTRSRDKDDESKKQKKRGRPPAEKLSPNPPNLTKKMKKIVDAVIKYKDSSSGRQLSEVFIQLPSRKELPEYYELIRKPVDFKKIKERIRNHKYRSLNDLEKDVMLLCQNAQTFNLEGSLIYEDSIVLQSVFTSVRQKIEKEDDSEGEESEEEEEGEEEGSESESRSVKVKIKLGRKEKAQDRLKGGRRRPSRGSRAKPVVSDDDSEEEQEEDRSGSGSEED
Put plainly: HiBit-BRG1 cell-based degradation assay (Nano-Glo HiBiT Lytic Detection). The note with it: HeLa cells expressing HiBit-BRG1 and LgBit, 24 h; for DC50: read-out: BRG1 HiBit Degradation IC50; for Dmax: read-out: BRG1 HiBit Degradation Maximum (%). The method in brief:
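HeLa cells stably expressing HiBit-BRG1 plus LgBit; compound exposure 24 h; Nano-Glo HiBiT lytic luminescence; % degradation vs DMSO (0%) and 2 μM standard BRM/BRG1 degrader (100%).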

T1 sequence (P51531 whole entry): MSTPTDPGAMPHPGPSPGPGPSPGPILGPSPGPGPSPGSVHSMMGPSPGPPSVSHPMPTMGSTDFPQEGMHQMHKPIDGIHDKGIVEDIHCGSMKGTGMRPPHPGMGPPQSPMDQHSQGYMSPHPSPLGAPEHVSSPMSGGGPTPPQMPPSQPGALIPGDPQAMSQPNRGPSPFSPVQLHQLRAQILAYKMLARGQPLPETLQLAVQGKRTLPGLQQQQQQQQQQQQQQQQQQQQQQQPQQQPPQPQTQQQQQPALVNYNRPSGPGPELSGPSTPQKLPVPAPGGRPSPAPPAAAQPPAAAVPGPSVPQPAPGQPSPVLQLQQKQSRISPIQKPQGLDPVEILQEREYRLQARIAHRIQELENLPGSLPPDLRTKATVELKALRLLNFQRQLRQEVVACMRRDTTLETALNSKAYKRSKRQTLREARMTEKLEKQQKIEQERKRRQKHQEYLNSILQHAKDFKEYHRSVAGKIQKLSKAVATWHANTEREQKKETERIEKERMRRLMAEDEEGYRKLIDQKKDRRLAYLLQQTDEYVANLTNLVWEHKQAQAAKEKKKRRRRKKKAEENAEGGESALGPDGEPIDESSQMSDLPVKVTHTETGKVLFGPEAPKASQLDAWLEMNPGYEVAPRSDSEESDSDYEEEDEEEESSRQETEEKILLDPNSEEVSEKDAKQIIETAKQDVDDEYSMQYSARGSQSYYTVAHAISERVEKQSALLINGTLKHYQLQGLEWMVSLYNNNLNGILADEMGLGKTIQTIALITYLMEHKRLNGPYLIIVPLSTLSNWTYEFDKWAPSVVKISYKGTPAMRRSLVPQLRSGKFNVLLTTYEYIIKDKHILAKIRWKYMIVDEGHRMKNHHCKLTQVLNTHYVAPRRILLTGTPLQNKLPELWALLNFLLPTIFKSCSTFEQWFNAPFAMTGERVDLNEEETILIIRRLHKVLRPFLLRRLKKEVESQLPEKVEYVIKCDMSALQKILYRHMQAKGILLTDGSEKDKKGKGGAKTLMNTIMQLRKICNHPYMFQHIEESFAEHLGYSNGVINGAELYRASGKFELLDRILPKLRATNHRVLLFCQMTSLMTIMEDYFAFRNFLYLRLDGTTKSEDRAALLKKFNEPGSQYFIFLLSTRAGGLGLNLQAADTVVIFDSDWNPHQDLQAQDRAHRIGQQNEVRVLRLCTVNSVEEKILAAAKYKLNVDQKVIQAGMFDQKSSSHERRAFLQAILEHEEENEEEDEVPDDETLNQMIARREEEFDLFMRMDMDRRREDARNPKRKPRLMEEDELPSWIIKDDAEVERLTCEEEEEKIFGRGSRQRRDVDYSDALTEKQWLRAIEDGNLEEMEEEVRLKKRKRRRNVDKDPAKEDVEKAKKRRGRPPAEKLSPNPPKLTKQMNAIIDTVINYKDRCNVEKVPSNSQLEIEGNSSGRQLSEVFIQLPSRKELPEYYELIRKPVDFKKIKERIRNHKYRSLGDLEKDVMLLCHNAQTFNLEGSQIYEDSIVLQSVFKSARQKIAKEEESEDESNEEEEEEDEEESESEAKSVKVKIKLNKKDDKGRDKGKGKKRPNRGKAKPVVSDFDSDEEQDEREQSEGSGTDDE

On to `Cc1ncsc1-c1ccc([C@H](C)NC(=O)[C@@H]2C[C@@H](O)CN2C(=O)[C@@H](NC(=O)CCCCCCCCCCCCCCC(=O)NCc2ccc(CCOc3cc(-c4ccccc4O)nnc3N)cc2)C(C)(C)C)cc1` [Compound 214, N1-(4-(2-((3-amino-6-(2-hydroxyphenyl)pyridazin-4-yl)oxy)ethyl)benzyl)-N16-((S)-1-((2S,4R)-4-hydroxy-2-(((S)-1-(4-(4-methylthiazol-5-yl)phenyl)ethyl)carbamoyl)pyrrolidin-1-yl)-3,3-dimethyl-1-oxobutan-2-yl)hexadecanediamide], for which, in experiment [1], the “BRM HiBit Degradation Maximum (%)” value is listed as “A (“A” indicates maximum degradation ≥75%)” and the DC50 was above 10 nM. Moreover, in experiment [2], the DC50 was above 1000 nM and the Dmax is below 50%.

`Cc1ncsc1-c1ccc([C@H](C)NC(=O)[C@@H]2C[C@@H](O)CN2C(=O)[C@@H](c2cc(OCCN3CCN(c4cc(-c5ccccc5O)nnc4N)CC3)no2)C(C)C)cc1` [Compound 217, (2S,4R)-1-((R)-2-(3-(2-(4-(3-amino-6-(2-hydroxyphenyl)pyridazin-4-yl)piperazin-1-yl)ethoxy)isoxazol-5-yl)-3-methylbutanoyl)-4-hydroxy-N-((S)-1-(4-(4-methylthiazol-5-yl)phenyl)ethyl)pyrrolidine-2-carboxamide]: in experiment [1], the “BRM HiBit Degradation Maximum (%)” value is reported as “A (“A” indicates maximum degradation ≥75%)” and the DC50 is above 10 nM. For the same compound, in experiment [2], the DC50 was above 1000 nM and the Dmax is below 50%.

With `Nc1nnc(-c2ccccc2O)cc1OCCc1ccc(CNC(=O)CCCCNc2cccc3c2C(=O)N(C2CCC(=O)NC2=O)C3)cc1` (centres unmarked) [Compound 155, N-(4-(2-((3-amino-6-(2-hydroxyphenyl)pyridazin-4-yl)oxy)ethyl)benzyl)-5-((2-(2,6-dioxopiperidin-3-yl)-3-oxoisoindolin-4-yl)amino)pentanamide], in experiment [1], the “BRM HiBit Degradation Maximum (%)” value is reported as “A (“A” indicates maximum degradation ≥75%)” and the DC50 is above 100 nM. Further, in experiment [2], the DC50 is above 1000 nM and the Dmax is below 50%.

For `Cc1ncsc1-c1ccc(CNC(=O)[C@@H]2C[C@@H](O)CN2C(=O)[C@@H](NC(=O)CCCCCCC(=O)NCc2ccc(CCOc3cc(-c4ccccc4O)nnc3N)cc2)C(C)(C)C)cc1` [Compound 30], in experiment [1], the “BRM HiBit Degradation Maximum (%)” value is on record as “A (“A” indicates maximum degradation ≥75%)” and the DC50 is above 100 nM. Besides, in experiment [2], the DC50 was above 1000 nM and the Dmax is below 50%.

For the compound `Cc1ncsc1-c1ccc([C@H](C)NC(=O)[C@@H]2C[C@@H](O)CN2C(=O)[C@@H](c2cc(OCCN3CCN(CC(=O)NCc4ccc(CCOc5cc(-c6ccccc6O)nnc5N)cc4)CC3)no2)C(C)C)cc1` [Compound 174, (2S,4R)-1-((R)-2-(3-(2-(4-(2-((4-(2-((3-amino-6-(2-hydroxyphenyl)pyridazin-4-yl)oxy)ethyl)benzyl)amino)-2-oxoethyl)piperazin-1-yl)ethoxy)isoxazol-5-yl)-3-methylbutanoyl)-4-hydroxy-N-((S)-1-(4-(4-methylthiazol-5-yl)phenyl)ethyl)pyrrolidine-2-carboxamide], in experiment [1], the “BRM HiBit Degradation Maximum (%)” value is reported as “A (“A” indicates maximum degradation ≥75%)” and the DC50 was above 10 nM. In experiment [2], the DC50 is above 100 nM and the Dmax was above 75%.

For the compound `Nc1nnc(-c2ccccc2O)cc1N1CCN(CC(=O)NCCS(=O)(=O)CCNc2cccc3c2C(=O)N(C2CCC(=O)NC2=O)C3=O)CC1` (centres unmarked) [Compound 79, 2-[4-[3-amino-6-(2-hydroxyphenyl)pyridazin-4-yl]piperazin-1-yl]-N-[2-(2-[[2-(2,6-dioxopiperidin-3-yl)-1,3-dioxoisoindol-4-yl]amino]ethanesulfonyl)ethyl]acetamide], in experiment [1], the “BRM HiBit Degradation Maximum (%)” value is given as “C (“C” indicates maximum degradation <50%)” and the DC50 was above 1000 nM. Also, in experiment [2], the DC50 is above 1000 nM and the Dmax was below 50%.

Take `CN(CCCCCOc1cccc2c1C(=O)N(C1CCC(=O)NC1=O)C2=O)Cc1ccc(CCNc2cc(-c3ccccc3O)nnc2N)cc1` (centres unmarked) [Compound 150, 4-((5-((4-(2-((3-amino-6-(2-hydroxyphenyl)pyridazin-4-yl)amino)ethyl)benzyl)(methyl)amino)pentyl)oxy)-2-(2,6-dioxopiperidin-3-yl)isoindoline-1,3-dione, formic acid salt]: in experiment [1], the “BRM HiBit Degradation Maximum (%)” value is given as “C (“C” indicates maximum degradation <50%)” and the DC50 was above 1000 nM. For the same compound, in experiment [2], the DC50 was above 1000 nM and the Dmax is below 50%.

Regarding `Cc1ncsc1-c1ccc(CNC(=O)[C@@H]2C[C@@H](O)CN2C(=O)[C@@H](NC(=O)CCN2CCC3(CC2)CCN(C(=O)c2ccc(CCOc4cc(-c5ccccc5O)nnc4N)cc2)CC3)C(C)(C)C)cc1` [Compound 201, (2S,4R)-1-((S)-2-(3-(9-(4-(2-((3-amino-6-(2-hydroxyphenyl)pyridazin-4-yl)oxy)ethyl)benzoyl)-3,9-diazaspiro[5.5]undecan-3-yl)propanamido)-3,3-dimethylbutanoyl)-4-hydroxy-N-(4-(4-methylthiazol-5-yl)benzyl)pyrrolidine-2-carboxamide], in experiment [1], the “BRM HiBit Degradation Maximum (%)” value is “B (“B” indicates maximum degradation ≥50%)” and the DC50 was above 1000 nM. In experiment [2], the DC50 is above 1000 nM and the Dmax is below 50%.

For `Cc1ncsc1-c1ccc(CNC(=O)[C@@H]2C[C@@H](O)CN2C(=O)[C@@H](NC(=O)CN2CCN(CCOc3cc(N4[C@@H]5CC[C@H]4CN(c4cc(-c6ccccc6O)nnc4N)C5)ccn3)CC2)C(C)(C)C)cc1` [Compound 233, (2S,4R)-1-((2S)-2-(2-(4-(2-((4-(3-(3-amino-6-(2-hydroxyphenyl)pyridazin-4-yl)-3,8-diazabicyclo[3.2.1]octan-8-yl)pyridin-2-yl)oxy)ethyl)piperazin-1-yl)acetamido)-3,3-dimethylbutanoyl)-4-hydroxy-N-(4-(4-methylthiazol-5-yl)benzyl)pyrrolidine-2-carboxamide], in experiment [1], the “BRM HiBit Degradation Maximum (%)” value was “A (“A” indicates maximum degradation ≥75%)” and the DC50 was above 10 nM. In experiment [2], the DC50 was above 100 nM and the Dmax was above 75%.

As for `Cc1ncsc1-c1ccc([C@H](C)NC(=O)[C@@H]2C[C@@H](O)CN2C(=O)[C@@H](NC(=O)CCCCCCCCCCCCCC(=O)N(C)Cc2ccc(CCOc3cc(-c4ccccc4O)nnc3N)cc2)C(C)(C)C)cc1` [Compound 197, N1-(4-(2-((3-amino-6-(2-hydroxyphenyl)pyridazin-4-yl)oxy)ethyl)benzyl)-N15-((S)-1-((2S,4R)-4-hydroxy-2-(((S)-1-(4-(4-methylthiazol-5-yl)phenyl)ethyl)carbamoyl)pyrrolidin-1-yl)-3,3-dimethyl-1-oxobutan-2-yl)-N1-methylpentadecanediamide], in experiment [1], the “BRM HiBit Degradation Maximum (%)” value is reported as “A (“A” indicates maximum degradation ≥75%)” and the DC50 is above 10 nM. Also, in experiment [2], the DC50 was above 1000 nM and the Dmax is below 50%.

On to `CN(CCc1ccc(CNC(=O)CCCCNc2cccc3nnn(C4CCC(=O)NC4=O)c(=O)c23)cc1)c1cc(-c2ccccc2O)nnc1N` (centres unmarked) [Compound 142, N-(4-(2-((3-amino-6-(2-hydroxyphenyl)pyridazin-4-yl)(methyl)amino)ethyl)benzyl)-5-((3-(2,6-dioxopiperidin-3-yl)-4-oxo-3,4-dihydrobenzo[d][1,2,3]triazin-5-yl)amino)pentanamide], for which, in experiment [1], the “BRM HiBit Degradation Maximum (%)” value is “C (“C” indicates maximum degradation <50%)” and the DC50 is above 1000 nM. Also, in experiment [2], the DC50 was above 1000 nM and the Dmax was below 50%.
